Results taken from patent publication US20250057985A1, “REEXPRESSION OF HNF4A TO ALLEVIATE CANCER-ASSOCIATED CACHEXIA” (YEDA RESEARCH AND DEVELOPMENT CO. LTD., priority 2022, published 2025).

Key:
[1] = system: CD8+ splenocytes; settings: ex-vivo, 1 mM ammonia, WT mice
Description: Activation of T cells from mice spleens: 10 weeks old WT female Balb/c mice were sacrificed and spleen harvested into cold-PBS on ice. Spleens were homogenized by syringe plunger through 70 uM strainer and washed with PBS. Following centrifugation at 1200 rpm for 5 min pellets were treated with RBC lysis buffer according to the manufacturer's instruction. Cells were resuspended in 2×10^6 cells/ml in splenocytes medium (complete RPMI medium supplemented with 50 μM β-mercaptoethanol, […] and Non-essential amino acids) supplemented with 6,000 IU/mL IL-2 (Chiron, rhIL2) and seeded in 24 well plates pre-coated with CD3 (BLG #100302). Following 72 h, cells were collected, centrifuged at 1200 rpm for 5 min, washed with splenocytes medium×2, and analyzed using CytoFLEX (Beckman Coulter) FACS analyzer.

[2] = target: T1, STAT3 (Mus musculus, UniProt P42227); assay: STAT3 inhibitor in IL-6-treated primary hepatocytes, OTC RT-PCR; assay type: cell-based; settings: 10 μM inhibitor 30 min then IL-6 48 h
T1 construct: endogenous in cells; host or cells: primary mouse hepatocytes isolated by liver perfusion
Description: Primary hepatocytes culture: Following perfusion, 1×10^6 isolated hepatocytes were seeded in 3 ml Williams E+Glutamx-TM-1 in 6 well plate. Four hours after, the medium was aspirated, and the cells were washed with PBS and incubated with 2 ml Williams E+Glutamx-TM-1 overnight. Cells were treated with 10 μM of HJC0152 STAT3 inhibitor (Selleckchem #58561), for 30 minutes cells and then treated with 10 ng/ml recombinant mouse IL-6 (R&D #406-ML-005) for 48 h.
RNA processing and quantitative PCR: RNA was extracted from liver tissue by using QIAzol Lysis Reagent (according to QIAzol® Handbook) or by Direct-zol™ MiniPrep Plus Kit (Zymo Research ZR-R2070). For hepatocytes RNA sequencing, RNA was extracted from dissociated hepatocytes. Following liver perfusion as previously described, hepatocytes were resuspended in QIAzol and frozen in −80° C. RNA was extracted by using QIAzol Lysis Reagent. RNA from cultured primary hepatocytes was extracted by using RNeasy Mini Kit (QIAGENe #74104). To evaluate mtDNA copy number, total DNA was isolated using DNA purification kit (DNeasy Blood & Tissue Kits Qiagen #69504). cDNA was synthesized from […] RNA by using qScript cDNA Synthesis Kit (Quanta #95749). Detection on cDNAs was performed using Syber Green Fast mix Perfect CT (Quantabio #95073) with the required primers (qPCR primer list—Table 1)

[3] = system: primary hepatocytes; assay: IL-6 supplementation of primary hepatocytes, RT-PCR; assay type: cell-based, mouse
Description: Liver Perfusions and hepatocytes dissociation: Livers of anaesthetized mice were perfused, with specific adjustments. The vena cava was inserted with 27 G syringe, fixed on the perfusion line. 10 ml of pre-warmed to 42° C. PPML buffer followed by 25 ml of pre-warmed to 42′C PM buffer with Liberase (Roche, cat #05401127001) were perfused through the vena cava. Immediately at the beginning of the perfusion, the portal vein was cut. Following perfusion of 25 ml of PM buffer and Liberase solution, livers were harvested into a Petri dish with 10 ml of pre-warmed PM buffer and chopped by forceps. Dissociated liver cells were collected and filtered through a slanted 100 um cell strainer. Cells were spin down at 30 g for 3 min at 4° C. to get hepatocytes enriched pellet. Pellet was resuspended in […] cold PM buffer. To enrich live hepatocytes, 21.6 ml cold Percoll (G.E. Healthcare #17-0891-01) mixed with +2.4 ml DPBSX10+CaCl2)+MgCl2 was added to the cells. Cells were centrifuged at 600 rpm for 10 minutes at 4° C. Supernatant containing the dead cells was aspirated, and cells were resuspended in 25 ml of cold Williams E+Glutamx-TM-1 (Gibco, cat #32551, 1% penstrep, 1% FBS, 1% L-Glutamine). […]
RNA processing and quantitative PCR: RNA was extracted from liver tissue by using QIAzol Lysis Reagent (according to QIAzol® Handbook) or by Direct-zol™ MiniPrep Plus Kit (Zymo Research ZR-R2070). […]

T1 sequence (P42227 whole entry, the tested form may be a part): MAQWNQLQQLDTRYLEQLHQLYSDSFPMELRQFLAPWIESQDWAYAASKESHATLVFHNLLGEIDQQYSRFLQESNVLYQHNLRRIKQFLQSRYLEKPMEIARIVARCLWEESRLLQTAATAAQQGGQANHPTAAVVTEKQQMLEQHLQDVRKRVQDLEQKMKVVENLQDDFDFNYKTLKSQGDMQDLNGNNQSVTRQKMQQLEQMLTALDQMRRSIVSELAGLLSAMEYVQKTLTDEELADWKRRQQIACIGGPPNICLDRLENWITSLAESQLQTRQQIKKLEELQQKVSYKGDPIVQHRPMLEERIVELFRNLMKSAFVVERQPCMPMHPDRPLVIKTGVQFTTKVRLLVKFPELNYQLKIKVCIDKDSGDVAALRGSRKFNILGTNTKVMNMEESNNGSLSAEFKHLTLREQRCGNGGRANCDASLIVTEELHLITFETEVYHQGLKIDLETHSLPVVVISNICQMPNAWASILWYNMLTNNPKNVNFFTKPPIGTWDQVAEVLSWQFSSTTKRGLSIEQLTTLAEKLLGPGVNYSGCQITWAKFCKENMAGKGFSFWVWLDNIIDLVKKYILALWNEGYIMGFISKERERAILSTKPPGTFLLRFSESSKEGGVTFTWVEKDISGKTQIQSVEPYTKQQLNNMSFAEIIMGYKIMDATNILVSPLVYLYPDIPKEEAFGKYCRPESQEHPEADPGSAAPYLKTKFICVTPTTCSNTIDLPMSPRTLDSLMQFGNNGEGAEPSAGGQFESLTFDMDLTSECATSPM

## N [ammonia]
[1]
  activation of T-cells splenocytes: reduced
  survival of T-cells splenocytes: reduced

## NCCOc1ccc(Cl)cc1C(=O)Nc1ccc([N+](=O)[O-])cc1Cl [HJC0152]
[2]
  OTC expression levels in the presence of IL-6: rescued
[2]; listed as HJCO152
  OTC expression levels in the presence of IL-6: restores

B1: IL-6: recombinant mouse IL-6 (R&D #406-ML-005) (protein, UniProt P08505 25-211, looked up)
Interleukin-6: FPTSQVRRGDFTEDTTPNRPVYTTSQVGGLITHVLWEIVEMRKELCNGNSDCMNNDDALAENNLKLPEIQRNDGCYQTGYNQEICLLKISSGLLEYHSYLEYMKNNLKDNKKDKARVLQRDTETLIHIFNQEVKDLHKIVLPTPISNALLTDKLESQKEWLRTKTIQFILKSLEEFLKVTLRSTRQT
[3]; 10 ng/ml recombinant mouse IL-6, 48 h
  RNA expression levels of OTC: decreased
[3]; IL-6 supplementation
  CCL2 RNA levels: increased
